Experimental data taken from US8524737B2, “Bi- and polycyclic substituted isoquinoline and isoquinolinone derivatives” (Sanofi, priority 2008, dated 2013).

Biological target: T1, human recombinant ROCK II (Homo sapiens, UniProt O75116)
T1 construct: recombinant human ROCK-II residues 11-552; His6 (N); purchased Millipore GmbH, Schwalbach, Germany
Experiment: Determination of Rho Kinase Inhibition (ROCK II, Caliper peptide phosphorylation assay)
Assay type: biochemical
Details: tested in the form (salt or free base) obtained in the examples
Experimental: Determination of Rho Kinase Inhibition To measure Rho-kinase inhibition, IC50 values were determined according to the following protocol: Active human recombinant ROCK II (N-terminal His6-tagged recombinant human ROCK-II residues 11-552) was purchased from Millipore GmbH, Schwalbach, Germany. The peptide substrate, Fluorescein-AKRRRLSSLRA-COOH, was obtained from JPT Peptide Technologies, Berlin, Germany. Adenosine-5′-triphosphate (ATP), bovine serum albumine (BSA), dimethylsulphoxide (DMSO), 4-(2-hydroxyethyl)piperazine-1-ethanesulfonic acid (Hepes), Brij-35, dithiothreitol (DTT) and Pluronic F-68 were purchased from Sigma-Aldrich, Munich, Germany. Tris(hydroxymethyl)-aminomethane (Tris), magnesium chloride, NaOH, 1M HCl and EDTA were obtained from Merck Biosciences, Darmstadt, Germany. “Complete” protease inhibitor was from Roche Diagnostics, Mannheim, Germany. Test compounds were diluted to the appropriate concentrations in buffer 1 (25 mM Tris-HCl, pH 7.4, 5 mM MgCl2, 2 mM DTT, 0.02% (w/v) BSA, 0.01% Pluronic F-68 and 3% DMSO). The ROCK II enzyme was diluted to a concentration of 100 ng/ml in buffer 2 (25 mM Tris-HCl, pH 7.4, 5 mM MgCl2, 2 mM DTT and 0.02% (w/v) BSA). The peptide substrate and ATP were diluted to concentrations of 3 μM and 120 μM, respectively, in the buffer 2. Two μl of the compound solution were mixed with 2 μl of the diluted enzyme in a 384-well small volume microtiter plate (Greiner, Bio-One, Frickenhausen, Germany), and the kinase reaction was initiated by addition of 2 μl of the solution containing peptide substrate and ATP. After 60 min incubation at 32° C., the reaction was stopped by addition of 20 μl of a solution containing 100 mM Hepes-NaOH, pH 7.4, 0.015% (v/v) Brij-35, 45 mM EDTA and 0.227% chip coating reagent 1 (Caliper Lifescience Inc, Hopkinton, Mass.). Phosphorylation of the substrate peptide was then detected on a Caliper 3000 instrument essentially as described by Pommereau et al (J. Biomol. Screening 2004, 9(5), 409-416). Separation conditions were as follows: Pressure −1.3 psi, upstream voltage −1562 V, downstream voltage −500 V, sample sip time 200 ms. Positive controls (buffer 1 instead of compound) and negative controls (buffer 1 instead of compound and buffer 2 instead of ROCK II) were run in parallel on each plate. The following products/compounds were tested in said assay by using the respective form (salt or free base) obtained as in the examples described above and the following activities were measured

T1 sequence (O75116 11-552): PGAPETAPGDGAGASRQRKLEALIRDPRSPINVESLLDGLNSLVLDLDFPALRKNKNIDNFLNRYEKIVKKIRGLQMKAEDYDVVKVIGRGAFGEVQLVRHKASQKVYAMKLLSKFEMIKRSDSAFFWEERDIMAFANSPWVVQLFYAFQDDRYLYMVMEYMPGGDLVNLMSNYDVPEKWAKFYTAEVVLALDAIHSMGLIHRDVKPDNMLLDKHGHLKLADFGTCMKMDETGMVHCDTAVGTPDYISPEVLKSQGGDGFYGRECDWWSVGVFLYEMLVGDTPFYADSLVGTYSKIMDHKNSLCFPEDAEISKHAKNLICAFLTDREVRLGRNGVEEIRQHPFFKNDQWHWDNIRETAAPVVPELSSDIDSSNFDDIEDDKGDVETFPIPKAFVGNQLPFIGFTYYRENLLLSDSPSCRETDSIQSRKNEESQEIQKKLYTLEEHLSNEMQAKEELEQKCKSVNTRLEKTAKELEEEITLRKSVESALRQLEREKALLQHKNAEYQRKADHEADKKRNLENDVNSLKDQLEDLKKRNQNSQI

| Structure (SMILES) | IC50 [nM] | pIC50 |
| --- | --- | --- |
| NC1C2CC3CC1CC(Oc1cc4cc[nH]c(=O)c4cc1Cl)(C3)C2 (single isomer, unassigned) [Example 1, 6-(4-Amino-adamantan-1-yloxy)-7-chloro-2H-isoquinolin-1-one] | 10 to 100 |  |
| C=CCC1(N)C2CC3CC1CC(Oc1cc4cc[nH]c(=O)c4cc1Cl)(C3)C2 (single isomer, unassigned) [Example 3, 6-(4-Allyl-4-amino-adamantan-1-yloxy)-7-chloro-2H-isoquinolin-1-one] | 10 to 100 |  |
| C=CCC1(N)C2CC3CC1CC(Oc1cc4cc[nH]c(=O)c4cc1Cl)(C3)C2 (single isomer, unassigned) [Example 4, 6-(4-Allyl-4-amino-adamantan-1-yloxy)-7-chloro-2H-isoquinolin-1-one] | 100 to 1000 |  |
| CCCC1(N)C2CC3CC1CC(Oc1cc4cc[nH]c(=O)c4cc1Cl)(C3)C2 (single isomer, unassigned) [Example 5, 6-(4-Amino-4-propyl-adamantan-1-yloxy)-7-chloro-2H-isoquinolin-1-one] | 10 to 100 |  |
| CCCC1(N)C2CC3CC1CC(Oc1cc4cc[nH]c(=O)c4cc1Cl)(C3)C2 (single isomer, unassigned) [Example 6, 6-(4-Amino-4-propyl-adamantan-1-yloxy)-7-chloro-2H-isoquinolin-1-one] | 100 to 1000 |  |
| CC1(N)C2CC3CC1CC(Oc1cc4cc[nH]c(=O)c4cc1Cl)(C3)C2 (single isomer, unassigned) [Example 8, 6-(4-Amino-4-methyl-adamantan-1-yloxy)-7-chloro-2H-isoquinolin-1-one] | 10 to 100 |  |
| NC1(c2ccccc2)C2CC3CC1CC(Oc1cc4cc[nH]c(=O)c4cc1Cl)(C3)C2 (single isomer, unassigned) [Example 9, 6-(4-Amino-4-phenyl-adamantan-1-yloxy)-7-chloro-2H-isoquinolin-1-one] | 100 to 1000 |  |
| NC1(C2CC2)C2CC3CC1CC(Oc1cc4cc[nH]c(=O)c4cc1Cl)(C3)C2 (single isomer, unassigned) [Example 11, 6-(4-Amino-4-cyclopropyl-adamantan-1-yloxy)-7-chloro-2H-isoquinolin-1-one] | 10 to 100 |  |
| O=c1[nH]ccc2cc(OC34CC5CC(C3)C(NCc3ccccc3)C(C5)C4)c(Cl)cc12 (single isomer, unassigned) [Example 12, 6-(4-Benzylamino-adamantan-1-yloxy)-7-chloro-2H-isoquinolin-1-one] | 100 to 1000 |  |
| N[C@]12CC3CC(C1)[C@H](Oc1cc4cc[nH]c(=O)c4cc1Cl)C(C3)C2 (single isomer, unassigned) [Example 14, Cis-6-(5-Amino-adamantan-2-yloxy)-7-chloro-2H-isoquinolin-1-one] | ≤ 10 |  |
| N[C@]12CC3CC(C1)[C@@H](Oc1cc4cc[nH]c(=O)c4cc1Cl)C(C3)C2 (single isomer, unassigned) [Example 15, Trans-6-(5-Amino-adamantan-2-yloxy)-7-chloro-2H-isoquinolin-1-one] | ≤ 10 |  |
| Cc1cc2c(=O)[nH]ccc2cc1OC1C2CC3CC1CC(N)(C3)C2 (single isomer, unassigned) [Example 16, 6-(5-Amino-adamantan-2-yloxy)-7-methyl-2H-isoquinolin-1-one] |  | +++++++ (8.0≦pIC50) |
| NC12C[C@H]3C[C@@H](C1)CC(Oc1cc4cc[nH]c(=O)c4cc1Cl)(C3)C2 [Example 13, 6-(3-Amino-adamantan-1-yloxy)-7-chloro-2H-isoquinolin-1-one] | 100 to 1000 |  |
| N[C@H]1C[C@H]2COC[C@@H](C1)[C@H]2Oc1cc2cc[nH]c(=O)c2cc1Cl [Example 17, 6-{[(7-Endo,9-anti)-7-amino-3-oxabicyclo[3.3.1]non-9-yl]oxy}-7-chloroisoquinolin-1(2H)-one] | 10 to 100 |  |
| N[C@H]1C[C@H]2COC[C@@H](C1)[C@@H]2Oc1cc2cc[nH]c(=O)c2cc1Cl [Example 18, 6-{[(7-endo,9-syn)-7-amino-3-oxabicyclo[3.3.1]non-9-yl]oxy}-7-chloroisoquinolin-1(2H)-one] | 10 to 100 |  |
| N[C@H]1C[C@H]2CSC[C@@H](C1)[C@H]2Oc1cc2cc[nH]c(=O)c2cc1Cl [Example 19, 6-{[(7-Endo,9-anti)-7-amino-3-thiabicyclo[3.3.1]non-9-yl]oxy}-7-chloroisoquinolin-1(2H)-one] | 10 to 100 |  |
| N[C@H]1C[C@H]2CSC[C@@H](C1)[C@@H]2Oc1cc2cc[nH]c(=O)c2cc1Cl [Example 20, 6-{[(7-endo,9-syn)-7-amino-3-thiabicyclo[3.3.1]non-9-yl]oxy}-7-chloroisoquinolin-1(2H)-one] | 10 to 100 |  |
| O=c1[nH]ccc2cc(O[C@H]3CC[C@@]4(CCCN4)CC3)c(Cl)cc12 [Example 22, 6-(1-Aza-spiro[4.5]dec-8-yloxy)-7-chloro-2H-isoquinolin-1-one] | 10 to 100 |  |
